Data as given in patent US9271991B2, “Trimegestone (TMG) for treatment of preterm birth” (Dignity Health, priority 2010, dated 2016).
Where “and” joins values, the source holds several entries; their conditions need not be identical. Equal entries are not always repeated.

Key:
[1] = system: pregnant rats (term delivery); assay: Delay of term delivery in pregnant rats; type: in vivo, Sprague-Dawley rats; conditions: pregnant rats
Excerpt: Timed-pregnant Sprague-Dawley rats (200-250 g) from Charles-River Laboratories (Wilmington, Mass., USA) were delivered to our animal care facilities on day 15 of gestation (day 1 being the day when a sperm plug was observed). The animals were housed separately, with free access to food and water and maintained on a constant 12-hour light-dark cycle. Control pregnant rats were spontaneously delivering on day 22 of gestation. The animals were randomly allocated into groups and sacrificed by carbon dioxide inhalation on day 5 postpartum or on day 25 of gestation in the groups with delayed delivery.
Pregnant rats (N=6 per group) were treated, when not otherwise mentioned, from day 20 of gestation until delivery. Single daily treatments were performed at 8 am and twice a day treatments at 8 am and 8 pm. Treatment began daily on day 20 of gestation with vehicles or: a) Topical P4 at various doses (4-30 mg/day, vehicle (v)=fish oil) or topical TMG ([…], v=fish oil; b) Subcutaneous (s.c.) P4 (0.5-4 mg/day, v=sesame oil) or s.c. TMG (0.5-2 mg/day, v=benzyl benzoate (BB) and castor oil (CO), 1:4). Delivery times were observed.
Subcutaneous treatments. All daily injections were by the subcutaneous route (s.c) in […] for the P4 treatments and benzyl benzoate (BB, 1 part): castor oil (CO, 4 parts) for the TMG group. P4 and TMG had dose ranges of 0.5 mg-4 mg per day and 0.5 mg-2 mg per day, respectively. Vehicles only are used in the control groups.
Topical treatments. Topical P4 and TMG (in fish oil and benzyl benzoate:castor oil (1:4), respectively) treatments were applied to the shaved back of the rat twice a day For topical treatments of P4 and TMG, dose range from 2 mg-30 mg per day and 0.005 to 0.5 mg per day, respectively.
Times of delivery of controls and treatment groups were determined as hours after 8 a.m. on day 22 of gestation. […] Delays in delivery less than 80 hours were calculated as less than 100% inhibition. The expulsion of a single pup was noted as delivery. Control groups spontaneously delivered on day 22 of gestation.
The Student's t test was used to compare the treatment groups with its specific control groups to determine the differences in delivery times. A 2-tailed probability value of P<0.05 was considered statistically significant.

[2] = system: pregnant guinea pigs (preterm delivery); assay: PGE2-induced preterm delivery in pregnant guinea pigs; type: in vivo, Hartley guinea pigs; conditions: TMG 4 mg/day s.c. days 44-47; PGE2 3 mg/day days 46, 47; sacrifice day 48
Excerpt: Pregnant guinea pigs, another model of pregnancy are also utilized as they more closely resemble the endocrine control of human pregnancy with progesterone levels in pregnancy maintained by the placenta as opposed to the ovaries, which is observed in pregnant rats.
Pregnant Hartley guinea pigs arrived at our facilities at 31-35 days gestation and housed in pairs, with free access to food and water and also maintained on a constant 12-hour light-dark cycle. The animals were euthanized with a combination of xylazine (Gemini; Burns Veterinary Supply Inc, Rockville Center, N.Y.) and ketamine HCL (Ketaset; Fort Dodge Laboratories Inc, Fort Dodge, Iowa). All procedures were approved by the Animal Care and Use Committee of the St. Joseph's Hospital and Medical Center in Phoenix, Ariz.
Pregnant guinea pigs (N=4-6 per group) were allocated into 4 groups (Vehicle (v) only, TMG only, PGE2 only, PGE2+TMG). PGE2 administration (3 mg/day s.c, v=saline) began daily on day 46 to day 47 of gestation. TMG administration (4 mg/day s.c v=BB:CO) began daily on day 44 until day 47 of gestation. All guinea pigs were sacrificed on day 48.

[3] = s.c. single daily treatment from day 20 of gestation
[4] = topical twice a day from day 20 of gestation

With `CC(=O)[C@H]1CC[C@H]2[C@@H]3CCC4=CC(=O)CC[C@]4(C)[C@H]3CC[C@]12C` [P4, progesterone] as the molecule, how does the “dose for complete block of delivery (80 hour delay, 100 percent inhibition), subcutaneous” value [1, 3] read?
The value was 2 mg.

What about the “dose for complete block of delivery, subcutaneous” value [1, 3] of the same molecule?
Its value is 2 mg/day.

And the “dose for complete block of delivery (80 hour delay, 100 percent inhibition), topical” value [1, 4]?
Its value is 15 mg.

And the “dose for complete block of delivery, topical” value [1, 4]?
Its value is 15 mg/day.

Which “guinea pigs delivered (preterm) / treated, substance alone” value [2] does the source give for `CCCCC[C@H](O)/C=C/[C@H]1[C@H](O)CC(=O)[C@@H]1C/C=C\CCCC(=O)O` [PGE2, prostaglandin E2] here?
Its value is 2/3 and 4/6.
